{
  "source": "patent US7998736B2",
  "about": "“Adoptive immunotherapy with enhanced T lymphocyte survival” (The United States of America as represented by the …, priority 2004, dated 2011)",
  "key": {"[1]": {"system": "CTLL-2 cells", "test": "CTLL-2 proliferation assay (3H-thymidine)", "format": "cell-based, mouse", "conditions": "Sup-T1 supernatants or control cytokine, 24 h", "description": "The CTLL-2 assay was used to determine whether IL-15 produced by transduced Sup-T1 cells was biologically active.\nCTLL-2 cells were grown in culture for 4 days and then harvested and washed twice in PBS and then plated into a 96-well plate, 5×10^3 cells/well. The CTLL-2 cells were incubated in the absence of cytokines for 4 hours. Supernatants from the transduced Sup-T1 cells were then added to the culture in serial dilutions. […] The CTLL-2 cells were cultured for a total of 24 hours; during the final six hours ^3H-Thymidine was added to each well. The CTLL-2 cells were harvested to a filter and read on a β-counter."}, "[2]": {"system": "IL-15Rα", "test": "IL-15Ralpha expression by flow cytometry", "format": "cell-based, human", "conditions": "OKT3 stimulated lymphocytes, FIG. 15", "from_the_text": "In vitro, supraphysiologic levels of cytokine can engage intermediate and low affinity IL-15 receptors on lymphocytes lacking IL-15Rα. […] IL-15Rα was detected with a polyclonal, biotinylated antibody and biotinylated isotype-matched control antibody; cell surface-bound antibody was then labeled with streptavidin-PE (R&D Systems). PE was detected through flow cytometry."}},
  "data": [
    {"substance": "IL-15: exogenous recombinant human IL-15 added to culture media", "values": [
      {"measurement": "proliferation of CTLL-2", "setting": "[1]", "value": "did proliferate"},
      {"measurement": "IL-15Rα staining", "setting": "[2]", "value": "did not manifest IL-15Rα staining"}
    ]}
  ]
}
